Assay results taken from PMC6928636, “Broad-Spectrum Amino Acid Transporters ClAAP3 and ClAAP6 Expressed in Watermelon Fruits” (International Journal of Molecular Sciences, 2019).
Like-named read-outs stand apart in the source and are kept apart here.

Tests used:
Conditions in all cases: labelled compound; empty-vector values used to normalize
ClAAP3 [1] = system: ClAAP3
ClAAP6 [2] = system: ClAAP6
ClAAP3 [3] = system: T1, ClAAP3; test: [3H]Arg uptake into yeast […]Δ[…]α cells; format: cell-based, Citrullus lanatus
T1 construct: untagged; expressed in S. cerevisiae 22Δ10α lacking endogenous amino acid transporters

ClAAP6 [4] = system: T2, ClAAP6; test: [3H]Arg uptake into yeast […]Δ[…]α cells; format: cell-based, Citrullus lanatus
T2 construct: untagged; expressed in S. cerevisiae 22Δ10α lacking endogenous amino acid transporters

Row | Km (ClAAP3 [1]) | Km (ClAAP6 [2]) | Compound | Km (ClAAP3 [3]) | Km (ClAAP6 [4])
1 | 398 ± 48.6 µM | 74 ± 9.8 µM | O=C(O)[C@@H]1CCCN1 [Pro] |  | 
2 |  |  | N=C(N)NCCC[C@H](N)C(=O)O [Arg] | 54.1 ± 7.5 µM | 579 ± 24.1 µM
